Data published in patent publication US8785471B2, “Pharmaceutical composition containing ferulic acid and matrine compounds, the preparation and the use thereof” (Qingdao Qiyuan Bio-Technologies Co., Ltd., priority 2008, dated 2014).
Where two headings read alike, the source gives them in different places.

What was measured:
[1] = test system: mice; experiment: Acute toxicity in mice; assay type: in vivo; conditions: 10 mice, 72 hours
Method: Methods: Healthy mice were selected, each group containing 10 mice. The mice were intragastric administrated with testing compositions or controls once; and observed for 72 hours. The deaths were recorded.

[2] = test system: mice; experiment: Anti-inflammatory effect, xylene ear swelling in mice; assay type: in vivo; conditions: xylene on right ear, ear coated with 1% composition, 30 minutes later
Method: Healthy mice were selected, each group containing 10 mice. After weighing and marking, the right ear of the mice was contacted with xylene cotton ball for 5 seconds, leaving the left ear as control. 10 minutes after proinflammatory treatment, the right ear was coated with testing compositions (1%), control ingredients (individual ferulic acid or oxymatrine) or blank control (physiological saline). 30 minutes later, the mice was sacrificed by cervical dislocation. The same volume of tissues was collected from left ear (control) and fight ear (treated with xylene) by hole puncher (diameter: 6 mm), and weighed. The ear swelling percentage was calculated. Ear swelling percentage (%)=(Weight of right ear−Weight of left ear)/Weight of left ear×100%

[3] = test system: mice; experiment: Mice gastrointestinal motility, carbon powder propulsion; assay type: in vivo; conditions: 3 days
Text: Materials and reagents: oxymatrine injection (Xinhua Inc., batch No.: 0306003), neostigmine methylsulfate injection (Tianfu Inc., batch No.: 0404131), atropine sulfate injection (Tianfu Inc., batch No.: 0409271), morphine sulfate controlled-release tablets (Mengdi Inc., batach No.: 04082312).
Animals and feeding environment: healthy SPF grade Kunming mice, half male, weight 18-22 g, provided by Lvye Inc., certificate No.: SYXK(LU)20030020. Every 10 mice were placed in one cage. Mice feeding was provided by Shandong experimental animal center. Experimental mice fed in barrier system with filtered air, at the room temperature of 18-22° C. and humidity at 50-60%, with 12 hours light radiation per day.
Methods: The mice were intragastric administrated with testing compositions or controls for consecutive 3 days. Before the last administration, the mice were stopped feeding and supplied with water for 16 hours. 30 minutes after the last administration, the mice were intragastric administrated with 0.2 ml 5% activated carbon suspension. 20 minutes later, the mice were sacrificed by cervical dislocation. The abdominal cavity was opened and bowel was collected from pylorus to ileocecal. The bowel was placed on a tray and straightened. The total length of small intestine was measured, as well as the advanced distance of carbon powder in the intestine from pylorus. The percentage of carbon powder propulsion was calculated by the following formula: percentage of carbon powder propulsion=advanced distance of carbon powder/total length of small intestine×100%

[4] = target: T1, blood acetylcholinesterase (Rattus norvegicus, UniProt P37136); experiment: Anticholinesterase effect on rat blood acetylcholinesterase; assay type: biochemical, rats
T1 construct: 0.05 ml each diluted composition was pipetted into 0.5 ml diluted rats blood; from tissue; host or cells: rat whole blood, anticoagulated, diluted 10 times with physiological saline
T1 sequence (P37136 32-614): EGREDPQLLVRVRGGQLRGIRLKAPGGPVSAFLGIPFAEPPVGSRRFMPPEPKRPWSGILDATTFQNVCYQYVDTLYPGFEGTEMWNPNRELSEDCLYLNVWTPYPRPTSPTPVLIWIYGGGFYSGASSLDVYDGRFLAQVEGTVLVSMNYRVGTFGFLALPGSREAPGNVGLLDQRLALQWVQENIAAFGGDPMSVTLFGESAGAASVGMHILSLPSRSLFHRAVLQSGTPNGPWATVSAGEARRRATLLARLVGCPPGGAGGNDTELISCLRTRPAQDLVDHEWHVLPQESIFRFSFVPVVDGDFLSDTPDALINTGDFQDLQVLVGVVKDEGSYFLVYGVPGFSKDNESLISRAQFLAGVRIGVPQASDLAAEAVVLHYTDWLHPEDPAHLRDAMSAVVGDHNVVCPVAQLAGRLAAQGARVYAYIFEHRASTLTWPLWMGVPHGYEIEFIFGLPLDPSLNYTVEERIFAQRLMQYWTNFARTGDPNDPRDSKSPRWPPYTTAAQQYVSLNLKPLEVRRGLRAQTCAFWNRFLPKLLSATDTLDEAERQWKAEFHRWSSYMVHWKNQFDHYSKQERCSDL
Method: Methods: 5 ml blood was collected from healthy rats, stored in tubes containing anticoagulants and diluted 10 times with physiological saline (ready for use). The testing compositions were diluted with physiological saline to 0, 5, 10, 20, 40, 80, 160, 320, 640 mg/l concentrations, respectively. 0.05 ml each diluted composition was pipetted into 0.5 ml diluted rats blood, mixed thoroughly and incubated at 37° C. for 1 hour. The activity of blood acetylcholinesterase was measured according to the acetylcholinesterase kit. The half inhibitory concentration (IC50) was calculated.

[5] = test system: mice; experiment: Analgesic effect, acetic acid writhing test in mice; assay type: in vivo; conditions: intragastric 20 mg/kg for 3 days, 0.6% acetic acid ip, writhing within 15 minutes
Method: Method: Healthy mice were selected, each group containing 10 mice. The mice were intragastric administrated with 20 mg/kg testing compositions or control compositions for consecutive 3 days. 30 minutes after the last administration, the mice were intra-peritoneally (ip) injected with 10 ml/kg of 0.6% acetic acid. The writhing numbers of the mice within 15 minutes were recorded. The analgesic percentage was calculated.
Analgesic percentage(%)=(writhing numbers of blank control group−writhing numbers of testing group)/writhing numbers of blank control group×100%

[6] = test system: hepatic stellate cells; experiment: Proliferation of hepatic stellate cells (MTT absorbance); assay type: cell-based, rats; conditions: 50 μmol/l, 48 hours, 570 nm, mean ± SD
Method: (§1) Materials and reagents: ELISA kit for rats type I collagen, trypsin, fetal bovine serum, etc.
(§2) Methods: Revived hepatic stellate cell (HSC) seeds were placed in a 100 ml plastic incubation flask and incubated in a CO2 incubator (inside 5% CO2, 95% humidity). The medium was discarded when the cells grew into a single layer. Digestion solution (5% trypsin) was added. The digestion solution was removed and centrifuged at 2200 rpm for 7 minutes. The supernatant was discarded, washed and centrifuged with DMEM incubation solution. The cells were suspended in a DMEM solution containing 20% fetal bovine serum, and the cell numbers were counted. The cell suspension was diluted with a DMEM solution and seeded in 96 well culture plate, each well having 100 μl diluted suspension. After 48 hours, the solution was removed and the cells were washed with a DMEM incubation solution containing 10% bovine serum to synchronize the cells at stable phrase. The cells were treated with testing compositions diluted in physiological saline (50 μmol/l). Each treatment tested 6 wells and repeated for 3 times. After 48 hours, incubation was terminated. […] The HSC absorbance at wavelength 570 nm was measured by microplate reader. […] The supernatant was obtained and the type I collagen content was measured according to the instructions in the type I collagen kit.

[7] = test system: patients with rash; experiment: Effect on rash in patients; assay type: in vivo; conditions: 10 patients, 1% applied on rash area, after 10 minutes
Method: Patient selection: 18-25 years old of either gender with rash at both body sides. Each composition was tested on 10 patients. Test was carried out with single-blind and self control. 1% composition or control was applied on rash area at left side of the body, and physiological saline was applied on rash area at the right side. After 10 minutes, the effects were evaluated.
Effect evaluation: Obviously effective if both rash and itching feeling disappear; effective if parts of rash and itching feeling disappear; invalid if both rash and itching feeling keep unchanged.

[8] = test system: type I collagen content of hepatic stellate cells; experiment: Type I collagen content of hepatic stellate cells (ELISA kit); assay type: cell-based, rats; conditions: 50 μmol/l, HSC supernatant; mean ± SD
Method: as §1, §2

[9] = test system: quails of fat arteriosclerosis model; experiment: Anti-atherosclerosis effect, serum TC and TG in quails; assay type: in vivo; conditions: quail serum, four weeks
Text: (§3) Testing composition preparation: ferulic acid and oxymatrine were mixed in a mole ratio 1:1 to prepare a solution.
(§4) Methods: According to the method described in reference (Liu et al., 2005. Chinese journal of arteriosclerosis, 13(3): 305-308).
(§5) Test method: 140 male quails were selected and randomly separated into 7 groups: normal control group (healthy quails), modeling control group (fat arteriosclerosis model which is set up by the methods described in reference), positive control group (fat arteriosclerosis model is treated by luofatading 10 mg/kg), ferulic acid control group (tested with ferulic acid 40 mg/kg), large/medium/small dosage testing groups ([…], of testing compositions). Except the normal control group, all the other 6 groups were fat arteriosclerosis models.
(§6) The quails were daily intragastric administrated with testing compositions or controls once per day for consecutive four weeks. The fourth weekend after administration, the content of serum lipid from 10 quails of each group was detected. In the end, pathological examination was conducted on the surviving quails.
Method to detect the content of serum lipid: at the end of the 4th week after administration, feeding was stopped for 12 hours. 2 ml blood was collected from jugular vein. The serum was separated. The contents of serum cholesterol (TC) and triglyceride (TG) were measured according to an enzymatic method.

[10] = test system: quails of fat arteriosclerosis model; experiment: Anti-atherosclerosis effect, aortic atherosclerosis degree of quails (pathological examination); assay type: in vivo; design: Total atherosclerosis score: scale not given here
Text: as §3, §4, §5, §6

[11] = test system: rheumatoid arthritis patients; conditions: 30 patients, 200 mg tablets daily, 5 days
Method: Testing composition preparation: The gel containing ferulic acid and matrine (mole ratio 1:1) were prepared according to a pharmaceutical method.
Methods: 30 pairs of rheumatoid arthritis patients; 30 patients participating in the control group with daily administration of 200 mg naproxen tablets; 30 patients participating in the testing group with daily application on the affected parts of the testing gel containing ferulic acid and matrine. Both groups were administered for consecutive 5 days.
Effect observations: obviously effective if both swelling and aches disappear; effective if aches disappear with limited swelling; invalid if both swelling and aches exist.

## O=C1C=CC[C@@H]2[C@H]3CCCN4CCC[C@@H](CN12)[C@@H]34 [Sophocarpine, sophocarpine]
[1]; single intragastric 500 mg/kg
  Death cases: 10

## O=C1CCC[C@@H]2[C@H]3CCCN4CCC[C@@H](CN12)[C@@H]34 [Matrine, matrine]
[1]; single intragastric 500 mg/kg
  Death cases: 10

## O=C1CCC[C@@H]2[C@H]3CCC[N+]4([O-])CCC[C@@H](CN12)[C@@H]34 (stereo partly drawn) [Oxymatrine, oxymatrine]
[2]
  Ear swelling percentage: 133.4%
[3]; intragastric 10 mg/kg
  Percentage of carbon powder propulsion (mean ± SD, %): 58.85 ± 13.22%
[3]; intragastric 20 mg/kg
  Percentage of carbon powder propulsion (mean ± SD, %): 67.49 ± 11.68 %
[4]
  IC50: 2780 µM
[5]
  Analgesic percentage: 29.98%
[6]
  Average absorbance: 0.39 ± 0.17
[7]
  Effective (number of patients): 10
[8]
  Type I collagen content: 63.42 ± 9.76 µg/L

## CN(C)C(=O)Oc1cccc([N+](C)(C)C)c1 [Neostigmine, neostigmine]
[3]; intragastric 4 mg/kg
  Percentage of carbon powder propulsion (mean ± SD, %): 68.55 ± 4.80 %
[4]; diluted rat blood, 37° C., 1 hour, read-out: IC50 (converted)
  IC50: 1640 µM

## COc1cc(/C=C\C(=O)O)ccc1O [Ferulic acid, 4-hydroxy-3-methoxy cinnamic acid]
[2]
  Ear swelling percentage: 164.6%
[3]; intragastric 20 mg/kg
  Percentage of carbon powder propulsion (mean ± SD, %): 54.33 ± 10.22%
[9]; 40 mg/kg intragastric daily
  TC: 16.88 ± 6.31 mmol/L
  TG: 3.52 ± 0.73 mmol/L
[10]; 40 mg/kg
  Numbers of quails in aortic atherosclerosis degree 0: 1
  Numbers of quails in aortic atherosclerosis degree 1: 4
  Numbers of quails in aortic atherosclerosis degree 2: 6
  Numbers of quails in aortic atherosclerosis degree 3: 3
  Numbers of quails in aortic atherosclerosis degree 4: 0
  Total atherosclerosis score: 25
[5]
  Analgesic percentage: 18.30%
[1]; single intragastric 1000 mg/kg
  Death cases: 0
[6]
  Average absorbance: 0.42 ± 0.24
[7]
  Effective (number of patients): 3
  Invalid (number of patients): 7
[8]
  Type I collagen content: 64.36 ± 11.22 µg/L

## CC[C@H](C)C(=O)O[C@H]1C[C@@H](C)C=C2C=C[C@H](C)[C@H](CC[C@@H]3C[C@@H](O)CC(=O)O3)[C@H]21 [Luofatading]
[9]; 10 mg/kg intragastric daily
  TC: 10.19 ± 2.07 mmol/L
  TG: 1.68 ± 0.36 mmol/L
[10]; 10 mg/kg
  Numbers of quails in aortic atherosclerosis degree 0: 0
  Numbers of quails in aortic atherosclerosis degree 1: 6
  Numbers of quails in aortic atherosclerosis degree 2: 8
  Numbers of quails in aortic atherosclerosis degree 3: 2
  Numbers of quails in aortic atherosclerosis degree 4: 0
  Total atherosclerosis score: 28

## COc1ccc2cc([C@H](C)C(=O)O)ccc2c1 [naproxen]
[11]
  Effective cases: 11 cases
  Obviously effective cases: 12 cases
  Total effective percentage: 76.7%
